This note sets out measurements from patent US8303989B2, “Compositions and methods for increasing the oral absorption of antimicrobials” (International Health Management Associates, Inc., priority 2000, dated 2012).

One series is described as follows: in vivo. Particulars: male, Sprague-Dawley, rat, plasma, other: intraduodenal (i.d.).
Series [1] is described as follows: Plasma ceftriaxone pharmacokinetics after intravenous administration to rats. It counts as in vivo, rat. Particulars: i.v. 20 mg CTX/kg, no capmul. As to the method:
These rats were anesthetized with 5.0 mg/100 g of pentobarbital by intraperitoneal injection. […] Blood samples were collected through the jugular vein catheter at predetermined time intervals.
For comparison purposes, about 20 mg/kg of CTX was administered (i.v.) to four rats.

The nature of series [2]: Plasma ceftriaxone (CTX) pharmacokinetics after intraduodenal (i.d.) administration to rats. Particulars: for BA00 / BA0-4 hr: i.d. 40 mg CTX eq/kg with capmul chase vs i.v. 20 mg CTX/kg.
Procedure: (§1) At specific time intervals, 0.6 ml of blood was taken from each rat and centrifuged. About 0.2 ml of the blood plasma was then analyzed for CTX by HPLC.
(§2) To determine absorption from the intestine, male Sprague Dawley rats weighing 250-300 g with free access to water were fasted for about 18 hours prior to the experiment. These rats were anesthetized and maintained with Ketamine/Xlazine ((60 mg/kg)/(80 mg/kg)) by intraperitoneal injection. The small intestine was exposed by a midline abdominal incision. A small incision was made in the stomach to insert a polyethylene tube (i.d. 0.76 mm, o.d. 1.22 mm, Clay Adams) toward the duodenum, which was closed at the exposed end by a stopcock to prevent drainage of drug solution from the duodenum. Ceftriaxone and oral formulations of CTX were dissolved in distilled water to achieve a final concentration of 40 mg CTX eq./kg and injected into the duodenum using the tube. Then 0.2 ml mono- and diglyceride mixture (Capmul) was coadministered into the duodenum using the intraduodenal tube. Blood samples were taken with a heparinized syringe through the jugular vein catheter at predetermined intervals.
(§3) The concentration of ceftriaxone in the plasma was determined by HPLC. Blood samples were centrifuged for 5 min at 5,000 rpm and 0.2 ml of plasma was taken into the microtube. 0.2 ml plasma was diluted by 0.2 ml of distilled water, and then 0.8 ml of acetonitrile was added for protein removal. The resulting suspensions were centrifuged for 10 min at 12,000 rpm and 50 μl of the clear supernatant was used for HPLC analysis. […] Percent bioavailability was calculated as follows: % BA=(AUC i.d./AUC i.v.)×(Dose i.v./Dose i.d.)×100
(§4) As a control, about 40 mg/kg of CTX was i.d. co-administered with 0.2 ml of capmul to four rats. […] At specific time intervals, 0.6 ml of blood was taken from each rat and centrifuged. About 0.2 ml of the blood plasma was then analyzed for CTX by HPLC.
The nature of series [3]: Plasma concentration of meropenem in rats after intraduodenal administration. The format is in vivo, rat. The note with it: control: meropenem reconstituted per manufacturer, ID catheter, saline flush, no Capmul. As to the method: Meropenem was infused as a solution through an intraduodenal catheter followed by 0.2 ml. Capmul chase and a saline flush. The carrier formulation was meropenem in calcium-carrageenen to a final concentration of approximately 55% meropenem by weight. Two rats were dosed through a duodenum catheter and plasma samples were collected through 4 hours post dosage. For comparison purposes, a control group received meropenem reconstituted according to the manufacturers instructions, and infused as a solution through ID catheter followed by a saline flush.
Two fasted rats were dosed through a duodenal catheter and plasma samples were collected through 4 hours post dosage. […] A third rat expired prior to dosage, possibly due to anesthesia required for surgery. Rat #1 expired at 4 hours, possibly due to the effects of prolonged anesthesia and blood collection.

Where [4] appears, read: Table 5, rats, i.d. 40 mg CTX eq/kg, 0.2 ml capmul chase.
Setting [5] is: Table 6, rats, i.d. 40 mg CTX eq/kg, 0.2 ml capmul chase.

Procedure for in vivo: as §1, §2, §3, §4

For orientation: Cmax means the highest concentration seen after dosing. By Tmax is commonly meant the time at which the peak concentration occurs. For `CO/N=C(\C(=O)N[C@@H]1C(=O)N2C(C(=O)O)=C(CSc3nc(=O)c(O)nn3C)CS[C@H]12)c1csc(N)n1` [CTX, ceftriaxone], in “in vivo” (40 mg CTX eq./kg), the concentration at 30 min came out at 10000 ng/mL, the concentration at 60 min stood at 11000 ng/mL, the concentration at 90 min came to 9000 ng/mL and the concentration at 120 min was determined as 7000 ng/mL. In the series “in vivo” (40 mg CTX eq./kg), this compound showed a concentration at 180 min of 6000 ng/mL and a concentration at 240 min of 5000 ng/mL. In “in vivo” (40 mg CTX eq/kg), the Cmax worked out at 17200 ng/mL and the Tmax is 1 h. Also, in series [1] (Table 5, rats), the AUC00 was found to be 188.0 ± 6.4 μghr/ml. The same compound returned an AUC00 in series [1] (Table 6, rats) of 188.0 ± 6.4 μghr/ml. In series [2] (Table 5, rats), the BA00 worked out at 13.9% and the BA0-4 hr is listed as 9.4%. In series [2] (setting [4]), this compound returned an AUC00 of 52.3 ± 32.4 μghr/ml and an AUG0-4 hr of 31.7 ± 12.4 μghr/ml. In series [2] (Table 6, rats), the BA00 is recorded as 13.9% and the BA0-4 hr worked out at 9.4%. In series [2] (setting [5]), this compound yielded an AUC00 of 52.3 ± 32.4 μghr/ml, an AUC0-4 hr of 31.7 ± 12.4 μghr/ml and a Cmax of 17200 ng/mL.

As for `C[C@@H](O)[C@H]1C(=O)N2C(C(=O)O)=C(S[C@@H]3CN[C@H](C(=O)N(C)C)C3)[C@H](C)[C@H]12` [meropenem], in series [3], the absorption result is “not absorbed” and the blood concentrations result is recorded as “undetectable”.
